Laboratory results as given in ChEMBL document CHEMBL4706557, “Synthesis and in vitro and in vivo biological evaluation of novel derivatives of flexicaulin A as antiproliferative agents” (Eur J Med Chem, 2020).
Activity calls are given as the source filed them. The calls are words filed in the database; no cut-off is given here.

What was measured:
ECa-109 cell line [1] = experiment: Antitumor activity against human EC109 cells xenografted in nude BALB/c mouse assessed as reduction in tumor weight at 40 mg/kg, ip administered every day for 14 days; format: functional, organism-based; conditions: time 14.0 day
TE-1 = experiment: Antiproliferative activity against human TE-1 cells assessed as inhibition of cell growth incubated for 72 hrs by SRB assay; format: functional, cell-based; conditions: TE-1, 72 h
MCF7 = experiment: Antiproliferative activity against human MCF7 cells assessed as inhibition of cell growth incubated for 72 hrs by SRB assay; format: functional, cell-based; conditions: MCF7, 72 h
HUVEC = experiment: Cytotoxicity against HUVEC assessed as reduction in survival rate after 24 to 72 hrs by SRB assay; format: cell-based; conditions: human, time 24-72 hrs
ECa-109 [2] = experiment: Inhibition of clone formation in human EC109 cells at 0.125 to 0.5 uM after 7 days by crystal violet staining based assay; format: functional, cell-based; conditions: dose 0.125-0.5 µM, time 7.0 day
ECa-109 cell line [3] = experiment: Induction of apoptosis in human EC-109 cells assessed as apoptotic rate at 0.75 uM after 24 hrs by Annexin V-FITC/propidium iodide staining based flow cytometry (reference value: 5.3 %); format: functional
ECa-109 cell line [4] = experiment: Induction of apoptosis in human EC-109 cells assessed as apoptotic rate at 0.75 uM after 48 hrs by Annexin V-FITC/propidium iodide staining based flow cytometry (reference value: 3.2 %); format: functional
ECa-109 cell line [5] = experiment: Induction of mitochondrial depolarization in human EC-109 cells assessed as depolarized cell population at 0.75 uM measured after 24 hrs by JC1 dye based flow cytometry (reference value: 4.2 %); format: functional
ECa-109 cell line [6] = experiment: Induction of apoptosis in human EC109 cells assessed as increase in cleaved PARP expression after 24 hrs by Western blot analysis; format: functional, cell-based
ECa-109 cell line [7] = experiment: Induction of apoptosis in human EC109 cells assessed as increase in BimEL expression after 24 hrs by Western blot analysis; format: functional, cell-based
ECa-109 cell line [8] = experiment: Induction of apoptosis in human EC109 cells assessed as increase in BimS expression after 24 hrs by Western blot analysis; format: functional, cell-based
ECa-109 cell line [9] = experiment: Induction of apoptosis in human EC109 cells assessed as increase in Bax/Bcl2 ratio at 0.75 to 3 uM after 24 hrs by Western blot analysis; format: functional, cell-based; conditions: dose 0.75-3 µM
ECa-109 cell line [10] = experiment: Induction of apoptosis in human EC109 cells assessed as increase in cytochrome C protein expression incubated for 24 hrs by Western blot analysis; format: functional, cell-based
ECa-109 cell line [11] = experiment: Induction of apoptosis in human EC109 cells assessed as increase in intracellular ROS level at 1.5 to 3 uM incubated for 24 hrs by DCFH-DA staining based flow cytometry analysis; format: functional, cell-based; conditions: dose 1.5-3 µM
ECa-109 cell line [12] = experiment: Induction of apoptosis in human EC109 cells assessed as increase in phosphorylated ASK1 expression incubated for 24 hrs by Western blot analysis; format: functional, cell-based
ECa-109 cell line [13] = experiment: Induction of apoptosis in human EC109 cells assessed as increase in phosphorylated JNK expression incubated for 24 hrs by Western blot analysis; format: functional, cell-based
ECa-109 cell line [14] = experiment: Induction of apoptosis in human EC109 cells assessed as activation of c-jun phosphorylation at Ser63 residue at 0.75 to 3 uM incubated for 24 hrs by Western blot analysis; format: functional, cell-based; conditions: dose 0.75-3 µM
ECa-109 [15] = experiment: Inhibition of clone formation in human EC109 cells at 0.5 uM after 7 days in presence of N-acetylcysteine by crystal violet staining based assay; format: functional, cell-based; conditions: time 7.0 day
ECa-109 cell line [16] = experiment: Induction of mitochondrial depolarization in human EC-109 cells assessed as depolarized cell population at 3 uM preincubated with N-acetylcysteine for 4 hrs followed by compound addition and measured after 24 hrs by JC1 dye based flow cytometry (reference value: 4.2 %); format: functional
ECa-109 cell line [17] = experiment: Induction of apoptosis in human EC109 cells assessed as change in phosphorylated ASK1 expression at 3 uM incubated for 24 hrs in presence of N-acetylcysteine by Western blot analysis; format: functional, cell-based
ECa-109 cell line [18] = experiment: Induction of apoptosis in human EC109 cells assessed as increase in cleaved caspase 9 expression at 3 uM incubated for 24 hrs in presence of N-acetylcysteine by Western blot analysis; format: functional, cell-based
ECa-109 cell line [19] = experiment: Induction of apoptosis in human EC-109 cells xenografted in nude BALB/c mouse assessed as reduction in number of cells at 20 to 40 mg/kg, ip administered once daily for 14 days by H and E staining based histopathological analysis; format: functional, organism-based; conditions: dose 20-40 mg/kg, time 14.0 day
ECa-109 cell line [20] = experiment: Induction of apoptosis in human EC-109 cells xenografted in nude BALB/c mouse assessed as apparent cellular loosening at 20 to 40 mg/kg, ip administered once daily for 14 days by H and E staining based histopathological analysis; format: functional, organism-based; conditions: dose 20-40 mg/kg, time 14.0 day
ECa-109 cell line [21] = experiment: Induction of apoptosis in human EC-109 cells xenografted in nude BALB/c mouse assessed as nuclear shrinkage at 20 to 40 mg/kg, ip administered once daily for 14 days by H and E staining based histopathological analysis; format: functional, organism-based; conditions: dose 20-40 mg/kg, time 14.0 day
ECa-109 cell line [22] = experiment: Induction of apoptosis in human EC-109 cells xenografted in BALB/c mouse assessed as decrease in Bcl-2 expression in tumor tissue at 20 to 40 mg/kg, ip QD for 14 days by Western blotting analysis relative to control; format: functional, organism-based; conditions: dose 20-40 mg/kg, time 14.0 day
ECa-109 cell line [23] = experiment: Induction of apoptosis in human EC-109 cells xenografted in BALB/c mouse assessed as increase in cleaved caspase 3 in tumor tissue at 40 mg/kg, ip QD for 14 days by Western blotting analysis relative to control; format: functional, organism-based; conditions: time 14.0 day
ECa-109 cell line [24] = experiment: Induction of apoptosis in human EC-109 cells xenografted in BALB/c mouse assessed as increase in phosphorylated JNK in tumor tissue at 20 to 40 mg/kg, ip QD for 14 days by Western blotting analysis; format: functional, organism-based; conditions: dose 20-40 mg/kg, time 14.0 day
[25] = Toxicity in BALB/c mouse assessed as effect on WBC level at 20 mg/kg, ip administered once daily for 14 days (reference value: 4.42 +/- 0.79 10^9/L); format: organism-based; conditions: in vivo, 336 h, time 14 day
[26] = Toxicity in BALB/c mouse assessed as HGB at 40 mg/kg, ip administered once daily for 14 days (reference value: 153.20 +/- 3.87 g/L); format: organism-based; conditions: in vivo, 336 h, time 14 day
[27] = Toxicity in BALB/c mouse assessed as HCT at 20 mg/kg, ip administered once daily for 14 days (reference value: 49.08 +/- 1.56 %); format: organism-based; conditions: in vivo, 336 h, time 14 day
[28] = Toxicity in BALB/c mouse assessed as RDW at 20 mg/kg, ip administered once daily for 14 days (reference value: 14.18 +/- 0.26 %); format: organism-based; conditions: in vivo, 336 h, time 14 day
[29] = Toxicity in BALB/c mouse assessed as PLT at 40 mg/kg, ip administered once daily for 14 days (reference value: 788.60 +/- 71.35 10^9/L); format: organism-based; conditions: in vivo, 336 h, time 14 day
[30] = Toxicity in BALB/c mouse assessed as effect on uric acid content at 20 to 40 mg/kg, ip administered once daily for 14 days; format: organism-based; conditions: in vivo, 336 h, dose 20-40 mg/kg, time 14 day
[31] = Toxicity in BALB/c mouse assessed as abnormalities in heart at 20 to 40 mg/kg, ip administered once daily for 14 days by HE staining based assay; format: organism-based; conditions: in vivo, 336 h, dose 20-40 mg/kg, time 14 day

For `C=C1C(=O)[C@@]23[C@H](O)C[C@@H]4C(C)(C)CCC[C@@]4(COC(C)=O)[C@@H]2[C@@H](O)C[C@H]1[C@H]3OC(=O)c1ccc(CCl)cc1`, the inhibition (ECa-109 cell line [1]) was “Active”, the IC50 (TE-1) was 0.27 µM and the IC50 (MCF7) was 0.35 µM. The Activity (HUVEC) was “Dose-dependent effect”, the inhibition (ECa-109 [2]) was “Active” and the Activity (ECa-109 cell line [3]) was 23.3%. For the same molecule, the Activity (ECa-109 cell line [4]) was 78.9%, the Activity (ECa-109 cell line [5]) was 26.3% and the Activity (ECa-109 cell line [6]) was “Dose-dependent effect”. For the same molecule, the Activity (ECa-109 cell line [7]) was “Dose-dependent effect”, the Activity (ECa-109 cell line [8]) was “Dose-dependent effect” and the Activity (ECa-109 cell line [9]) was “Active”. The Activity (ECa-109 cell line [10]) was “Dose-dependent effect”, the Activity (ECa-109 cell line [11]) was “Active” and the Activity (ECa-109 cell line [12]) was “Dose-dependent effect”. The Activity (ECa-109 cell line [13]) was “Dose-dependent effect”, the Activity (ECa-109 cell line [14]) was “Active” and the inhibition (ECa-109 [15]) was “inactive”. The Activity (ECa-109 cell line [16]) was 4%, the Activity (ECa-109 cell line [17]) was “inactive” and the Activity (ECa-109 cell line [18]) was “inactive”. The Activity (ECa-109 cell line [19]) was “Active”, the Activity (ECa-109 cell line [20]) was “Active” and the Activity (ECa-109 cell line [21]) was “Active”. For the same molecule, the Activity (ECa-109 cell line [22]) was “Active”, the Activity (ECa-109 cell line [23]) was “Active” and the Activity (ECa-109 cell line [24]) was “Active”. The Activity [25] was 5.02 10^9/L, the Activity [26] was 144.4 g/L and the Activity [27] was 46.67%. For the same molecule, the Activity [28] was 14.32%, the Activity [29] was 832.8 10^9/L and the Activity [30] was “Non-Toxic”. The Activity [31] was “Non-Toxic”.
